# Experiment: Stability of CBD in simulated gastric fluid (SGF)
# Assay type: physicochemical
# Details: 37° C.
# Description: A medium of stimulating gastric fluid (SGF) was prepared by dissolving sodium chloride (0.2 w/v %) and hydrochloric acid (0.1M) in DDW, and incubated at 37° C.
# For MeOH solution sodium dodecyl sulfate (1 w/v %) was added to the SGF. 500 ml of SGF mediums was contained in an appropriate Erlenmeyer flask. At time 0-1 ml of each CBD stock solution was added to the SGF. The mixture was vigorously shaken at a water bath warmed to 37° C. and immediately 1 ml of the solution was sampled and replaced with an equal volume of preheated SGF medium. Similarly, same volume was sampled at 5, 10, 15, 20, 30, 45, 60, 75, 90, 120, 150 and 180 minutes. Each 1 mL sample was immediately neutralized to a pH of 7 to 9, with 980 μL of 0.1M sodium hydroxide solution and 3 ml MeOH, and pH levels were tested. All samples were kept at 4° C. until HPLC analysis.
# For MeOH solution and AX1 system additional samples were taken every 30 min and injected directly into the HPLC without further treatment. […] The measured CBD concentration was divided to the initial concentration (C/C0) at each time point.
# In comparison, the CBD profile in SGF with a commercial product (‘RSHO’™—containing CBD dissolved in vegetable oil) and CBD dissolved in pure olive oil were evaluated.
structure (smiles),measurement,setting,value
"C=C(C)[C@@H]1CCC(C)=C[C@H]1c1c(O)cc(CCCCC)cc1O [CBD in MeOH, cannabidiol]",Start of CBD degradation,,5 min
same,CBD left,after 2 hours,less than 4%
same,CBD degradation in SGF (in words),up to 180 min,significant degradation over time
same,CBD decomposed,within 30 min,68%
